Test results published in ChEMBL document CHEMBL3399939, “Synthetic studies of five-membered heteroaromatic derivatives as potassium-competitive acid blockers (P-CABs)” (Bioorg Med Chem Lett, 2015).

Legend:
[1] = organism: Sus scrofa; assay: Inhibition of K+-stimulated H(+)/K(+) ATPase in porcine gastric mucosal microsomal fraction assessed as reduction in inorganic phosphate release at 10 uM incubated at 37 degC for 30 mins in presence of ATP by malachine green dye based colorimetry; format: microsomes; details: Gastric mucosa
[2] = Lipophilicity, log D of the compound; format: physicochemical; details: octanol/water
[3] = Inhibition of K+-stimulated H(+)/K(+) ATPase in porcine gastric mucosal microsomal fraction assessed as reduction in inorganic phosphate release incubated at 37 degC for 30 mins in presence of ATP by malachine green dye based colorimetry; format: microsomes, Sus scrofa, Gastric mucosa

Structure (SMILES) | inhibition [1] | logD [2] | IC50 [3]
CNCc1cc(-c2ccccc2)c(S(=O)(=O)c2ccc(C)cc2)o1 | 33.2% | – | –
CNCc1cn(S(=O)(=O)c2ccc(C)cc2)c(-c2ccccc2)n1 | – | 0 | 99 nM
CCNc1nc(-c2ccccc2)c(S(=O)(=O)c2ccccc2)s1 | 6.9% | – | –
CNCc1cc(S(=O)(=O)c2ccccc2)n(-c2ccccc2)c1 | – | 0.4 | 130 nM
CNc1nc(-c2ccccc2)c(S(=O)(=O)c2ccccc2)s1 | 3.6% | – | –

Further lines, results first:

inhibition [1] | logD [2] | IC50 [3] | Structure (SMILES)
– | 1.9 | 150 nM | CNCc1cc(S(=O)(=O)c2ccccc2)c(-c2ccccc2)s1
– | 1.8 | 1000 nM | CNCc1cc(S(=O)(=O)c2ccccc2)c(-c2ccccc2)o1
19.8% | – | – | CNCc1cc(S(=O)(=O)c2ccccc2)c(-c2ccccc2)[nH]1
– | 2.1 | 52 nM | CNCc1cc(-c2ccccc2)c(S(=O)(=O)c2ccccc2)s1
2% | – | – | CNCc1nc(S(=O)(=O)c2ccccc2)c(-c2ccccc2)s1
– | 1.1 | 68 nM | CNCc1cc(S(=O)(=O)c2ccccc2)n(-c2ccccc2)n1
– | 2.1 | 170 nM | CNCc1nc(-c2ccccc2)c(S(=O)(=O)c2ccccc2)s1
